≈ marks a conversion by molar mass, not a printed value. Where “and” joins values, the source holds several entries; their conditions need not be identical. Equal entries are not always repeated.
Legend:
[1] = Dissolution and precipitation in pH 6.5 phosphate buffer at 37° C. containing HPMC; format: physicochemical; conditions: aqueous buffer
Source text: The inclusion of HPMC in the tablet of Example 16 was to maintain the supersaturation of Compound I API after its mono-tosylate salt dissolves. […]

[2] = Solubility in pure water at 25° C. with PXRD of solid residues; format: physicochemical; conditions: for pH (24 hrs) / pH (1 hr): pH of solubility sample; for pH (24 hrs) / pH (1 hr) / S 24 hrs / S 1 hr: pure water, 25° C.; for pH (1 hr) / S 1 hr: one hour; for S 24 hrs: 24 hours equilibration
Description: Using a similar strategy as described above, these salts were prepared by evaporation from a solution of free base and acid in a solvent (e.g., methanol-dichloromethane 1:1, ethyl acetate-dichloromethane 1:2, isopropanol, and the like). If necessary, an amorphous salt produced in this way was crystallized by stirring the amorphous material in an appropriate solvent (e.g., ethyl acetate, acetonitrile, and the like).

[3] = Experimental determination of the pKa; format: physicochemical
[4] = Example 21 crossover pharmacokinetics of mono-tosylate and di-tosylate tablets in fasted dogs; format: in vivo, beagle dogs; conditions: for Individual plasma concentration of Compound I: individual dogs 1-5; for Individual plasma concentration of Compound I / Mean plasma concentration of Compound I: phase 2, di-tosylate tablet 200 mg PO; for AUC0-last / AUC0-rt / Cmax / tmax: Example 21, fasted dogs, 200 mg tablet PO
Description: Pharmacokinetics parameters of formulations of Compound I and its salts in dogs were determined by orally administering a test formulation tablet at 200 mg of active (Compound I or salt) per dog.
Blood samples were taken at various times after administration, plasma prepared, and submitted to analysis for parent drug using a qualified LC-MS-MS assay. Pharmacokinetics parameters derived from the plasma analytical data were determined using non-compartmental analysis.
Pharmacokinetics of Compound I were determined in pentagastrin-pretreated male beagle dogs following a single oral (PO) administration at 200 mg/tablet per dog in a 2-phase crossover designed study, with a washout period of at least 7 days in between each phase. Five male, non-naive, purebred beagle dogs were used in each phase of the 2-phase crossover study. All dogs were pretreated with pentagastrin (6 μg/kg intramuscular administrations) approximately 30 minutes before test article administration.
Two tablet formulations (mono-tosylate and di-tosylate, as described above) of test article were assessed. Animals were fasted overnight prior to PO dosing through approximately 4 hours post-dose. The tablet was administered orally, followed by approximately 10 mL of reverse osmosis water. Phase 1 animals were given tablets containing Compound I mono-tosylate, and phase 2 animals were given tablets containing Compound I di-tosylate salt. Blood samples were collected pre-dose and at 0.25, 0.5. 1. 2, 4, 8, 24, 36, and 48 hours after the oral dose. Plasma was harvested, and the concentration of Compound I in each plasma sample was determined by an LC/MS/MS assay. The assay lower limit of quantitation was 20 ng/mL for Compound I. Mean Compound I concentrations measured in plasma were used to construct semi-logarithmic plasma concentration-time curves (FIG. 1). Pharmacokinetic analysis was performed using non-compartmental methods.

[5] = Water sorption / dynamic vapor sorption (DVS) hygroscopicity; format: physicochemical
Description: The pKa value of Compound I free base was calculated (ACD Labs pKa DB, v10.0) as 2.12±0.33. Therefore, Compound I free base was considered as a very weak base that could be protonated by strong acids. […] A sample of Compound I free base was analyzed by powder x-ray diffraction and found to be crystalline without any readily detectable amorphous content. […] (onset temperature).
The maximum water uptake for the amorphous salt was about 40% whereas the maximum water uptake for the crystalline di-hydrochloride salt was higher, with about 54% uptake.
The hygroscopic nature of the besylate salt was examined by dynamic vapor sorption analysis (DVS). […] Below 80% relative humidity not much water was adsorbed.

[6] = Thermal stability of salt; format: physicochemical
Source text: It was produced in a crystalline form that was easy to dry, as the residual solvent content of the obtained sample was low. The particle size distribution and crystal habits found were acceptable.

[7] = Table 5: free base and crystalline salt forms
[8] = Table 4: free base and amorphous salt forms

Compound: Cn1cc(-c2cn(-c3ccc(OC(F)(F)F)cc3)c(=O)c3ncn(C)c23)cn1 [Compound I, 1-methyl-7-(1-methyl-1H-pyrazol-4-yl)-5-(4-(trifluoromethoxy)phenyl)-1,5-dihydro-4H-imidazo[4,5-c]pyridin-4-one]
- solubility [1]: ~80 µg/mL (≈ 205 µM)
- Solubility (24 hours) [2, 7]: 57 µg/mL
- solubility at 24 h ([2]; water, 25 °C, water, thermodynamic from solid, Table 4: free base and amorphous salt forms): 57 µg/mL
- pKa [3]: 2.5

Compound: Cc1ccc(S(=O)(=O)O)cc1.Cc1ccc(S(=O)(=O)O)cc1.Cn1cc(-c2cn(-c3ccc(OC(F)(F)F)cc3)c(=O)c3ncn(C)c23)cn1 [Di-tosylate]
- Individual plasma concentration of Compound I ([4]; 0.25 hours, fasted dogs, listed as Compound I di-tosylate salt): 1020 ng/mL and 146 ng/mL and 309 ng/mL and 29.1 ng/mL and 670 ng/mL
- Mean plasma concentration of Compound I ([4]; 0.25 hours, mean, fasted dogs): 536 ng/mL
- Individual plasma concentration of Compound I ([4]; 0.5 hours, fasted dogs, listed as Compound I di-tosylate salt): 7120 ng/mL and 1820 ng/mL and 3500 ng/mL and 636 ng/mL and 2610 ng/mL
- Mean plasma concentration of Compound I ([4]; 0.5 hours, mean, fasted dogs): 3760 ng/mL
- Individual plasma concentration of Compound I ([4]; 1 hour, fasted dogs, listed as Compound I di-tosylate salt): 8040 ng/mL and 6510 ng/mL and 9340 ng/mL and 1600 ng/mL and 6140 ng/mL
- Mean plasma concentration of Compound I ([4]; 1 hour, mean, fasted dogs): 7510 ng/mL
- Individual plasma concentration of Compound I ([4]; 2 hours, fasted dogs, listed as Compound I di-tosylate salt): 8810 ng/mL and 11200 ng/mL and 13400 ng/mL and 1580 ng/mL and 8110 ng/mL
- Mean plasma concentration of Compound I ([4]; 2 hours, mean, fasted dogs): 10400 ng/mL
- Individual plasma concentration of Compound I ([4]; 4 hours, fasted dogs, listed as Compound I di-tosylate salt): 6820 ng/mL and 10500 ng/mL and 13100 ng/mL and 1040 ng/mL and 6440 ng/mL
- Mean plasma concentration of Compound I ([4]; 4 hours, mean, fasted dogs): 9220 ng/mL
- Individual plasma concentration of Compound I ([4]; 8 hours, fasted dogs, listed as Compound I di-tosylate salt): 2700 ng/mL and 5620 ng/mL and 5860 ng/mL and 368 ng/mL and 2040 ng/mL
- Mean plasma concentration of Compound I ([4]; 8 hours, mean, fasted dogs): 4060 ng/mL
- Individual plasma concentration of Compound I ([4]; 24 hours, fasted dogs, listed as Compound I di-tosylate salt): 231 ng/mL and 1800 ng/mL and 530 ng/mL and 35.0 ng/mL and 30.0 ng/mL
- Mean plasma concentration of Compound I ([4]; 24 hours, mean, fasted dogs): 648 ng/mL
- Individual plasma concentration of Compound I ([4]; 36 hours, fasted dogs, listed as Compound I di-tosylate salt): BLQ (4×) and 273 ng/mL
- Mean plasma concentration of Compound I ([4]; 36 hours, mean, fasted dogs): 273 ng/mL
- Individual plasma concentration of Compound I ([4]; 48 hours, fasted dogs, listed as Compound I di-tosylate salt): BLQ (4×) and 21.5 ng/mL
- Mean plasma concentration of Compound I ([4]; 48 hours, mean, fasted dogs): 21.5 ng/mL
- AUC0-last ([4]; individual subjects): 62700 ng·h/mL and 129000 ng·h/mL and 113000 ng·h/mL and 9680 ng·h/mL and 47200 ng·h/mL
- AUC0-rt ([4]; individual subjects): 64100 ng·h/mL and 129000 ng·h/mL and 116000 ng·h/mL and 9890 ng·h/mL and 47300 ng·h/mL
- Cmax ([4]; individual subjects): 8810 ng/mL and 11200 ng/mL and 13400 ng/mL and 1600 ng/mL and 8110 ng/mL
- tmax ([4]; individual subjects): 2.00 h and 1.00 h
- AUC0-last ([4]; mean): 88000 ng·h/mL
- AUC0-rt ([4]; mean): 89100 ng·h/mL
- Cmax ([4]; mean): 10400 ng/mL
- tmax ([4]; mean): 2.00 h
- Individual plasma concentration of Compound I ([4]; Pre-dose, fasted pentagastrin-pretreated dogs): BLQ
- Mean plasma concentration of Compound I ([4]; Pre-dose, mean, fasted dogs): BLQ

Compound: Br.Br.Cn1cc(-c2cn(-c3ccc(OC(F)(F)F)cc3)c(=O)c3ncn(C)c23)cn1 [di-HBr crystalline]
- Solubility (24 hours) [2, 7]: 480 µg/mL
- pH (24 hrs) [2]: 1.6
- pH (1 hr) [2]: 1.6
- S 24 hrs [2]: 0.48 mg/mL
- S 1 hr [2]: 0.54 mg/mL

Compound: Cl.Cl.Cn1cc(-c2cn(-c3ccc(OC(F)(F)F)cc3)c(=O)c3ncn(C)c23)cn1 [di-HCl crystalline]
- Solubility (24 hours) [2, 7]: 760 µg/mL
- pH (24 hrs) [2]: 1.5
- pH (1 hr) [2]: 1.3
- S 24 hrs [2]: 0.76 mg/mL
- S 1 hr [2]: 1.14 mg/mL

Compound: Cn1cc(-c2cn(-c3ccc(OC(F)(F)F)cc3)c(=O)c3ncn(C)c23)cn1.Cn1cc(-c2cn(-c3ccc(OC(F)(F)F)cc3)c(=O)c3ncn(C)c23)cn1.O=S(=O)(O)CCS(=O)(=O)O [hemi-edisylate]
- Solubility (24 hours) [2, 7]: 990 µg/mL
- pH (24 hrs) [2]: 1.48
- pH (1 hr) [2]: 1.42
- S 24 hrs [2]: 0.99 mg/mL
- S 1 hr [2]: 1.09 mg/mL
- reversibility of water adsorption within the timeframe of observation [5]: not reversible

Compound: Cn1cc(-c2cn(-c3ccc(OC(F)(F)F)cc3)c(=O)c3ncn(C)c23)cn1.Cn1cc(-c2cn(-c3ccc(OC(F)(F)F)cc3)c(=O)c3ncn(C)c23)cn1.O=S(=O)(O)c1cccc2c(S(=O)(=O)O)cccc12 [hemi-napadisylate]
- Solubility (24 hours) [2, 7]: 1830 µg/mL
- pH (24 hrs) [2]: 1.53
- pH (1 hr) [2]: 1.53
- S 24 hrs [2]: 1.83 mg/mL
- S 1 hr [2]: 2.76 mg/mL
- reversibility of water adsorption within the timeframe of observation [5]: not reversible

Compound: Br.Cn1cc(-c2cn(-c3ccc(OC(F)(F)F)cc3)c(=O)c3ncn(C)c23)cn1 [mono-HBr amorphous]
- Solubility (24 hours) [2, 8]: 620 µg/mL
- pH (24 hrs) [2]: 1.6
- S 24 hrs [2]: 0.62 mg/mL

Compound: Br.Cn1cc(-c2cn(-c3ccc(OC(F)(F)F)cc3)c(=O)c3ncn(C)c23)cn1 [mono-HBr crystalline]
- pH (24 hrs) [2]: 1.9
- S 24 hrs [2]: 0.31 mg/mL

Compound: Cl.Cn1cc(-c2cn(-c3ccc(OC(F)(F)F)cc3)c(=O)c3ncn(C)c23)cn1 [mono-HCl amorphous]
- Solubility (24 hours) [2, 8]: 700 µg/mL
- pH (24 hrs) [2]: 1.6
- S 24 hrs [2]: 0.70 mg/mL

Compound: Cl.Cn1cc(-c2cn(-c3ccc(OC(F)(F)F)cc3)c(=O)c3ncn(C)c23)cn1 [mono-HCl crystalline]
- pH (24 hrs) [2]: 1.6
- S 24 hrs [2]: 0.42 mg/mL

Compound: Cn1cc(-c2cn(-c3ccc(OC(F)(F)F)cc3)c(=O)c3ncn(C)c23)cn1.O=[N+]([O-])O [mono-nitrate amorphous]
- pH (24 hrs) [2]: 1.9
- S 24 hrs [2]: 0.33 mg/mL

Compound: Cn1cc(-c2cn(-c3ccc(OC(F)(F)F)cc3)c(=O)c3ncn(C)c23)cn1.O=[N+]([O-])O [mono-nitrate crystalline]
- pH (24 hrs) [2]: 1.8
- pH (1 hr) [2]: 1.8
- S 24 hrs [2]: 0.38 mg/mL
- S 1 hr [2]: 0.42 mg/mL

Compound: Cn1cc(-c2cn(-c3ccc(OC(F)(F)F)cc3)c(=O)c3ncn(C)c23)cn1.O=S(=O)(O)O [mono-sulfate amorphous]
- Solubility (24 hours) [2, 8]: 840 µg/mL
- pH (24 hrs) [2]: 1.4
- pH (1 hr) [2]: 1.2
- S 24 hrs [2]: 0.84 mg/mL

Compound: Cn1cc(-c2cn(-c3ccc(OC(F)(F)F)cc3)c(=O)c3ncn(C)c23)cn1.O=S(=O)(O)O [mono-sulfate crystalline]
- Solubility (24 hours) [2, 7]: 1540 µg/mL
- pH (24 hrs) [2]: 1.2
- pH (1 hr) [2]: 1.1
- S 24 hrs [2]: 1.54 mg/mL
- S 1 hr [2]: 1.73 mg/mL
- thermal stability [6]: good thermal stability

From patent US20260167638A1, “PHARMACEUTICAL COMPOUND, SALTS THEREOF, FORMULATIONS THEREOF, AND METHODS OF MAKING AND USING SAME” (Genentech, Inc., priority 2018, published 2026)
